Laboratory results published in patent publication US20250129130A1, “USE OF VARIOVORAX MICROBES AS AN ALTERNATIVE TREATMENT FOR COCCIDIOSIS” (ZIVO BIOSCIENCE, INC., priority 2020, published 2025).

What was measured:
[1] = tested on: E. acervuline, E. maxima, E. tenella oocysts; assay: Study No. 3: floor-pen broiler performance and digestive health under cocci-challenge + built-up litter; conditions: Coban 90 g/ton, Inventive Compound 125 g/ton
TLR4 [2] = target: T1, TLR4 (Homo sapiens, UniProt O00206+Q9Y6Y9); conditions: severe sepsis; cited from earlier work
T1 sequence (O00206 24-839): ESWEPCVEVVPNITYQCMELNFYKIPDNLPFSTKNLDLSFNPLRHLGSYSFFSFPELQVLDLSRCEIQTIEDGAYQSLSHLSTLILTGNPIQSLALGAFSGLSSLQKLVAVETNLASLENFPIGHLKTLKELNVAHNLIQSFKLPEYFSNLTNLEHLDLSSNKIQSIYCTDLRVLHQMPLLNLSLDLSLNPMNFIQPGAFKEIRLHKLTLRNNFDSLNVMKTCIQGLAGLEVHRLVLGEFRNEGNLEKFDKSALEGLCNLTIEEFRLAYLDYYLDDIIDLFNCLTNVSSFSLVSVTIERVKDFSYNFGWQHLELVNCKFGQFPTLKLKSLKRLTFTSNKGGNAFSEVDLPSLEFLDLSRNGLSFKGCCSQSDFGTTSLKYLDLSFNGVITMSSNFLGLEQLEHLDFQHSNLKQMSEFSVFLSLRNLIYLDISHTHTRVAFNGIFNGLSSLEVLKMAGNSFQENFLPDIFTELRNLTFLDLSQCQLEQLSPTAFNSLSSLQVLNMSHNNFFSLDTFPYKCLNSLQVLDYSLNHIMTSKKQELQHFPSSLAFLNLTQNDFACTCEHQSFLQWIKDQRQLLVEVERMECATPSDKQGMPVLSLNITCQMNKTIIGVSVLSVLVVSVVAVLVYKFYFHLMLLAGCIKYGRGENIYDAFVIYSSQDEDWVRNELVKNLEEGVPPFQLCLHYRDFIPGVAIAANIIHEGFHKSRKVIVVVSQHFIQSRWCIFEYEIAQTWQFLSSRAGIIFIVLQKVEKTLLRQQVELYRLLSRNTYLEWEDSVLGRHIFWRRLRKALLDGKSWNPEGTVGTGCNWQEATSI
T1 sequence (Q9Y6Y9 17-160 limits assumed): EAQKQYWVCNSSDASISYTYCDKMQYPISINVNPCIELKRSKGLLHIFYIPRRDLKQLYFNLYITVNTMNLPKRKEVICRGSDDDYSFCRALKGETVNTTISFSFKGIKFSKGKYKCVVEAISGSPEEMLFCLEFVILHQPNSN

TLR4 [3] = target: T1, TLR4; conditions: Phase 2 multiple sclerosis trial, versus placebo; cited from earlier work
[4] = tested on: mixed E. acervulina, E. maxima, and E. tenella coccidial inoculum; assay: Study No. 1: anticoccidial efficacy in feed, battery-cage broilers, mixed Eimeria challenge; assay type: in vivo, male broiler chickens; conditions: Salinomycin 60 g/t
Excerpt: A non-limiting example of a method for the improvement of growth efficiency in broiler chickens exposed to a coccidiosis disease challenge is set forth.
The study animals were chickens, specifically male broiler chickens. Day of hatch male broiler chicks were obtained. At the hatchery, the birds were sexed. Sets of ten chicks were randomly selected, group weighed and placed into cages. The number and disposition of all birds not used for allocation were documented. No birds were replaced during the course of the study. There were 80 birds per treatment group.
The poultry cages were blocked by location in the battery with block size equal to treatments. The study began when the birds, specifically broiler chickens, were placed on the day of hatch (DOT 0) at which time they were allocated to the experimental cages. Only healthy birds were selected. At placement the birds were fed the treatment feeds. Thermostatically controlled gas furnace/air conditioner maintained uniform temperature in the cages.
An un-medicated commercial type chicken starter compounded with feedstuffs commonly used in the United States was formulated. The diet was an all-vegetable feed having no antibiotics, organic acid, NSP enzyme, or direct fed microbial. This ration was fed ad libitum from the date of chick arrival until Day 28 of the study. The diet formulation was included in the source data. Experimental treatment feeds were prepared from this basal starter feed. Quantities of all basal feed and test articles used to prepare treatment batches were documented.
All birds were weighed by cage on DOT 0, 14, 20 and 28. Feed was weighed in on DOT 0. The remaining feed was weighed on DOT 14, 20, and 28.
Coccidial oocysts inoculation procedures were carried out. On Day 14 of the study, all birds except T1 orally received a mixed E. acervulina, E. maxima, and E. tenella coccidial inoculum diluted to a 1.0 ml volume (p.o.). Inoculum level attempted to produce a moderate challenge.
On DOT 20, a select number of birds from each cage were selected, sacrificed, weighed, and examined for the degree of presence of coccidia lesions. The Johnson and Reid (1970) method of coccidiosis lesion scoring was used to score the infected region(s) of the intestine. The scoring was based on a 0 to 4 score, with 0 being normal and 4 being the most severe. Also on Day 20 mixed feces were collected from each cage. Each sample was examined for the number of oocysts per gram fecal material by fecal floatation.
STUDY NO. 1—ANALYSIS METHODOLOGY Means for cage weight gain, feed consumption, feed conversion, lesion scores, oocyst counts (OPGs), and mortality were calculated.

[5] = DAY 0-20, infected Day 14, Inventive Compound 0.551%
[6] = DAY 0-28, infected Day 14, Inventive Compound 0.551%
[7] = DAY 14 (before challenge), Inventive Compound 0.551% in feed
[8] = DAY 14-20, infected Day 14, Inventive Compound 0.551%
[9] = DAY 14-28, infected Day 14, Inventive Compound 0.551%
[10] = DOT 20, Johnson and Reid 0 to 4 score, Inventive Compound 0.551%
[11] = Day 20 mixed feces, fecal floatation, Inventive Compound 0.551%

CC[C@@]1([C@@H]2O[C@@H]([C@H]3O[C@@](O)(CO)[C@H](C)C[C@@H]3C)C[C@@H]2C)CC[C@H]([C@]2(C)CC[C@]3(C[C@H](O)[C@@H](C)[C@@H]([C@@H](C)[C@@H](OC)[C@H](C)C(=O)O)O3)O2)O1 [Coban, Monensin, USP]
% Mortality ([1]; DAY 0-14, challenge Day 7): 0.833a %
Avg Body Weight (g) ([1]; DAY 0-14, challenge Day 7): 496.13a g
FCR ([1]; DAY 0-14, challenge Day 7): 1.112ab
Feed Intake (g/bird/day) ([1]; DAY 0-14, challenge Day 7): 34.680b g/bird/day
% Mortality ([1]; DAY 0-21): 1.563a %
Avg Body Weight (g) ([1]; DAY 0-21): 951.80a g
FCR ([1]; DAY 0-21): 1.151a
Feed Intake (g/bird/day) ([1]; DAY 0-21): 54.811a g/bird/day
% Mortality ([1]; DAY 0-28): 1.563a %
Avg Body Weight (g) ([1]; DAY 0-28): 1535.00a g
FCR ([1]; DAY 0-28): 1.387a
Feed Intake (g/bird/day) ([1]; DAY 0-28): 78.960c g/bird/day
% Mortality ([1]; DAY 15-21): 0.729a %
Avg Body Weight (g) ([1]; DAY 15-21): 445.167a g
FCR ([1]; DAY 15-21): 1.244ab
Feed Intake (g/bird/day) ([1]; DAY 15-21): 77.988a g/bird/day
% Mortality ([1]; DAY 22-28): 0.000a %
Avg Body Weight (g) ([1]; DAY 22-28): 583.217a g
FCR ([1]; DAY 22-28): 1.825a
Feed Intake (g/bird/day) ([1]; DAY 22-28): 151.410c g/bird/day
DAY 14 Avg Lesion Score Ceca ([1]; Day 14): 0.292a
DAY 14 Avg Lesion Score Duodenum ([1]; Day 14): 0.375b
DAY 28 Avg Lesion Score Ceca ([1]; Day 28): 0.229a
DAY 28 Avg Lesion Score Duodenum ([1]; Day 28): 0.208a

CCOC(=O)C1=CCCC[C@H]1S(=O)(=O)Nc1ccc(F)cc1Cl [Resatorvid]
mortality in Phase 3 clinical trials (TLR4 [2]): failed to reduce mortality

CC(C)C(=O)c1c(C(C)C)nn2ccccc12 [Ibudilast]
rates of gastrointestinal side effects, headache, and depression (TLR4 [3]): higher rates

CC[C@@H](C(=O)[C@@H](C)[C@@H](O)[C@H](C)[C@@H]1O[C@@H]([C@@H](CC)C(=O)O)CC[C@@H]1C)[C@H]1O[C@]2(C=C[C@@H](O)[C@]3(CC[C@@](C)([C@H]4CC[C@](O)(CC)[C@H](C)O4)O3)O2)[C@H](C)C[C@@H]1C [Salinomycin]
FCR [4, 5]: 1.597bc
Feed Intake [4, 5]: 5.433a
Wt. Gain [4, 5]: 0.360b
FCR [4, 6]: 1.625bc
Feed Intake [4, 6]: 5.918a
Wt. Gain [4, 6]: 0.376b
FCR [4, 7]: 1.156a
Feed Intake [4, 7]: 2.384a
Wt. Gain [4, 7]: 0.218a
FCR [4, 8]: 1.744b
Feed Intake [4, 8]: 3.049a
Wt. Gain [4, 8]: 0.185b
FCR [4, 9]: 1.766c
Feed Intake [4, 9]: 3.534a
Wt. Gain [4, 9]: 0.202b
Lesion Scores Avg. [4, 10]: 1.3c
Lesion Scores Eimeria acervulina [4, 10]: 2.1c
Lesion Scores Eimeria maxima [4, 10]: 0.9c
Lesion Scores Eimeria tenella [4, 10]: 0.7c
Oocysts per Gram Fecal Material Avg. [4, 11]: 9722b
Oocysts per Gram Fecal Material Eimeria acervulina [4, 11]: 4511a
Oocysts per Gram Fecal Material Eimeria maxima [4, 11]: 484b
Oocysts per Gram Fecal Material Eimeria tenella [4, 11]: 4727c
